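Results reflect a 48-hour exposure of cells in 96-well plates to compound at five concentrations. At the GI50, growth is halved.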 Calls of active or inactive are those of the source. Cut-off read from the data, not from the text of the source: active = GI50 up to about 1.1 µM and inactive = higher.
Tests used:
Assay in all cases: NCI tumour cell line growth inhibition, 48 h
SW-620 = tested on: SW-620
LOX IMVI = tested on: LOX IMVI
PC-3 = tested on: PC-3
OVCAR-5 = tested on: OVCAR-5
NCI-H23 = tested on: NCI-H23
COLO 205 = tested on: COLO 205
NCI-H460 = tested on: NCI-H460
SF-268 = tested on: SF-268
SK-OV-3 = tested on: SK-OV-3
HCC 2998 = tested on: HCC 2998
SR = tested on: SR
HOP-62 = tested on: HOP-62
OVCAR-3 = tested on: OVCAR-3
HCT-116 = tested on: HCT-116
SK-MEL-5 = tested on: SK-MEL-5
MDA-MB-435 = tested on: MDA-MB-435
HCT-15 = tested on: HCT-15
Hs-578T = tested on: Hs-578T
Malme-3M = tested on: Malme-3M
CCRF-CEM = tested on: CCRF-CEM

Row | SMILES | GI50 (SW-620) | GI50 (LOX IMVI) | GI50 (PC-3) | GI50 (OVCAR-5) | GI50 (NCI-H23) | GI50 (COLO 205) | GI50 (NCI-H460) | GI50 (SF-268) | GI50 (SK-OV-3) | GI50 (HCC 2998) | GI50 (SR) | GI50 (HOP-62) | GI50 (OVCAR-3) | GI50 (HCT-116) | GI50 (SK-MEL-5) | GI50 (MDA-MB-435) | GI50 (HCT-15) | GI50 (Hs-578T) | GI50 (Malme-3M) | GI50 (CCRF-CEM)
1 | [N-]=[N+]=Nc1c(Cl)c(=O)n(-c2ccccc2)c2ccccc12 | 14.6 µM (inactive) | 14.9 µM (inactive) | 18.7 µM (inactive) | 24.3 µM (inactive) | 19.6 µM (inactive) | 25.8 µM (inactive) | 34.8 µM (inactive) | 19.8 µM (inactive) | 37.2 µM (inactive) | 21.7 µM (inactive) | 31.4 µM (inactive) | 24 µM (inactive) | 17.3 µM (inactive) | 17.8 µM (inactive) | 3.15 µM (inactive) | 19.1 µM (inactive) | 20.7 µM | 25.3 µM (inactive) | 22.2 µM (inactive) | 11.9 µM (inactive)
2 | Cc1ccc(O)c(-c2cc(-c3cccc(Br)c3)on2)c1 | 19.8 µM (inactive) | 16.3 µM (inactive) | 45.6 µM (inactive) | 35.8 µM (inactive) | 37.1 µM (inactive) | 18.2 µM (inactive) | 29.1 µM (inactive) | 24.2 µM (inactive) | 21.3 µM (inactive) | 22.4 µM (inactive) | 25.1 µM (inactive) | 47.8 µM (inactive) | 19.1 µM (inactive) | 20 µM (inactive) | 18.1 µM (inactive) | 21.7 µM (inactive) | 31.4 µM | 44.6 µM (inactive) | 32.6 µM (inactive) | 26.9 µM (inactive)
3 | CCNC(=S)NNC(=O)CSc1nc2ccc(I)cc2c(=O)n1Cc1ccccc1 | 37.8 µM (inactive) | 34.9 µM (inactive) | 18.5 µM (inactive) | > 100 µM (inactive) | 21.6 µM (inactive) | 25.7 µM (inactive) | 12.6 µM (inactive) | 31.9 µM (inactive) | 35 µM (inactive) | 17.6 µM (inactive) | 7.43 µM (inactive) | 35.8 µM (inactive) | 18.2 µM (inactive) | 6.5 µM (inactive) | 8.65 µM (inactive) | 12.9 µM (inactive) | 14.7 µM | 29.7 µM (inactive) | 23.9 µM (inactive) | 7.98 µM (inactive)
4 | COc1cc(Oc2nc3c(N)cc(C(F)(F)F)cc3nc2-c2ccccc2)cc(OC)c1OC | 3.07 µM (inactive) | 3.48 µM (inactive) | 1.92 µM (inactive) | 31.3 µM (inactive) | 2.82 µM (inactive) | 3.62 µM (inactive) | 4.14 µM (inactive) | 4.66 µM (inactive) | 4.53 µM (inactive) | 5.36 µM (inactive) | 0.624 µM (active) | 3.29 µM (inactive) | 1.3 µM (inactive) | 2.34 µM (inactive) | 2.77 µM (inactive) | 0.445 µM (active) | 3.53 µM | 3.69 µM (inactive) | 0.869 µM (active) | 4.9 µM (inactive)
5 | CCOC1C=CCCO1 (stereo not given) | > 100 µM (inactive) | > 100 µM (inactive) | > 100 µM (inactive) | > 100 µM (inactive) | > 100 µM (inactive) | > 100 µM (inactive) | > 100 µM (inactive) | > 100 µM (inactive) | > 100 µM (inactive) | 1.55 µM (inactive) | > 100 µM (inactive) | > 100 µM (inactive) | > 100 µM (inactive) | > 100 µM (inactive) | > 100 µM (inactive) | > 100 µM (inactive) | > 100 µM | > 100 µM (inactive) | > 100 µM (inactive) | > 100 µM (inactive)
6 | COc1cccc(N2C(=O)C3c4[nH]c5ccc(C)cc5c4C4CCC(C)CC4C3C2=O)c1 (stereo not given) | > 100 µM (inactive) | > 100 µM (inactive) | > 100 µM (inactive) | > 100 µM (inactive) | > 100 µM (inactive) | > 100 µM (inactive) | > 100 µM (inactive) | 47.2 µM (inactive) | 30.3 µM (inactive) | > 100 µM (inactive) | > 10 µM (inactive) | 1.4 µM (inactive) | > 100 µM (inactive) | > 100 µM (inactive) | > 100 µM (inactive) | > 100 µM (inactive) | > 100 µM | 23.7 µM (inactive) | > 100 µM (inactive) | 31.7 µM (inactive)
7 | COC1=C(Br)[C@H](O)[C@@]2(C=C1Br)CC(C(=O)NCCCCCNC(=N)N)=NO2 [APLYSINAMISINE II] | > 10 µM (inactive) | > 10 µM (inactive) | > 10 µM (inactive) | > 10 µM (inactive) | > 10 µM (inactive) | > 10 µM (inactive) | > 10 µM (inactive) | > 10 µM (inactive) | > 10 µM (inactive) | > 10 µM (inactive) | 6.87 µM (inactive) | > 10 µM (inactive) | > 10 µM (inactive) | > 10 µM (inactive) | > 10 µM (inactive) | > 10 µM (inactive) | > 10 µM | > 10 µM (inactive) | > 10 µM (inactive) | > 10 µM (inactive)
8 | N#CCC1C2CC3C(C2=O)C13 (stereo not given) | > 100 µM (inactive) | > 100 µM (inactive) | > 100 µM (inactive) | > 100 µM (inactive) | > 100 µM (inactive) | > 100 µM (inactive) | > 100 µM (inactive) | > 100 µM (inactive) | > 100 µM (inactive) | > 100 µM (inactive) | > 100 µM (inactive) | > 100 µM (inactive) | > 100 µM (inactive) | > 100 µM (inactive) | > 100 µM (inactive) | > 100 µM (inactive) | > 100 µM | > 100 µM (inactive) | > 100 µM (inactive) | > 100 µM (inactive)
9 | COc1ccc(CCN2CCN(CCCc3ccccc3)CC2)cc1 | > 100 µM (inactive) | > 100 µM (inactive) | > 100 µM (inactive) | 77.1 µM (inactive) | 64.3 µM (inactive) | 22.9 µM (inactive) | 84.5 µM (inactive) | > 100 µM (inactive) | > 100 µM (inactive) | 69.3 µM (inactive) | 47.8 µM (inactive) | > 100 µM (inactive) | 80 µM (inactive) | > 100 µM (inactive) | 23.2 µM (inactive) | > 100 µM (inactive) | 37.7 µM | > 100 µM (inactive) | > 100 µM (inactive) | > 100 µM (inactive)
10 | NC(=O)c1cc(N2CC2)c([N+](=O)[O-])cc1[N+](=O)[O-] [TRETAZICAR] | > 100 µM (inactive) | > 100 µM (inactive) | > 200 µM (inactive) | > 100 µM (inactive) | > 100 µM (inactive) | > 100 µM (inactive) | 13 µM (inactive) | > 100 µM (inactive) | > 100 µM (inactive) | > 100 µM (inactive) | > 200 µM (inactive) | > 100 µM (inactive) | > 100 µM (inactive) | > 100 µM (inactive) | > 200 µM (inactive) | > 200 µM (inactive) | > 145 µM | > 200 µM (inactive) | > 129 µM (inactive) | > 100 µM (inactive)
